How the values were obtained:
[1] = target: T1, PP2A (Homo sapiens, UniProt P67775); assay: PP2A activity in response to ceramides and FTY720 compounds (FIG. 8); format: biochemical; settings: for PP2A activity in response to Ceramides: FIG. 8A; for PP2A activity in response to compounds: FIG. 8B, C2 ceramide as internal control
[2] = target: rPP2A (Homo sapiens, UniProt P67775); assay: recombinant PP2A (rPP2A) activity with FTY720 compounds; format: biochemical; settings: versus rPP2A alone; for effect on rPP2A activity: across tested concentrations
[3] = system: PP2A; assay: PP2A activity, cellular assay (FIG. 4B); format: cell-based
[4] = system: BDNF expression in neurons; assay: BDNF trophic factor expression in neurons (FIG. 6); format: cell-based
[5] = system: control and mutant A53T Syn PD mice; assay: Anxiety levels in control and mutant A53T Syn PD mice (FIG. 7B); format: in vivo, mouse
[6] = system: S1P receptors; settings: with the exception of S1P2; cited from earlier work
[7] = system: control and mutant A53T Syn PD mice; assay: Grip strength in control and mutant A53T Syn PD mice (FIG. 7A); format: in vivo, mouse; settings: 5 month old mice, FTY720 twice a week for 14 weeks versus vehicle
[8] = target: T1, PP2A; assay: PP2A activity, cell free assay (FIG. 4A); format: biochemical
[9] = system: C57/B16 Mice mouse model of Parkinson's disease; assay: Paraquat mouse model of Parkinson's disease, brain immunohistochemistry (FIG. 5); format: in vivo
[10] = system: PP2A in mouse adrenal gland; assay: PP2A activity in mouse adrenal gland after single dosing (FIG. 9B, 9D, 9F); format: in vivo; settings: for effect on PP2A in mouse adrenal gland, IV delivery: single dose (FIG. 9D, 9F)

T1 sequence (P67775 whole entry): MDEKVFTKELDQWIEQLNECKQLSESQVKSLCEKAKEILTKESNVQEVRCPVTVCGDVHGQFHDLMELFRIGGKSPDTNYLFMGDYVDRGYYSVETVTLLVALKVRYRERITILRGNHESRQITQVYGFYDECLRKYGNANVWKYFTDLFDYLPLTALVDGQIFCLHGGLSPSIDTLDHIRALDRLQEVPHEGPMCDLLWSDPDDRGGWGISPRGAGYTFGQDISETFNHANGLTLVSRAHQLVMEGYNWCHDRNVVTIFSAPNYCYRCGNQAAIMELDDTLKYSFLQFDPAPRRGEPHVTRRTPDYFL
Chain of rPP2A (P67775 whole entry): as above

SMILES	PP2A activity in response to Ceramides [1]	PP2A activity in response to compounds [1]	effect on rPP2A activity at 10 uM [2]	effect on rPP2A activity [2]	agonism of S1P receptors [6]	effect on PP2A in mouse adrenal gland, IV delivery [10]	further results
CCCCCCCCCCCCC/C=C/[C@@H](O)[C@H](CO)NC(C)=O [C2 ceramide]	able to stimulate PP2A activity	significantly stimulate PP2A activity					
CCCCCCCCCCCCCC=CC(O)C(CO)NC(=O)CCCCC (stereo not shown) [Ceramide C6]	able to stimulate PP2A activity						
CCCCCCCCc1ccc(CCC(N)(CO)CO)cc1 [FTY720, 2-amino-2-[2-(4-octylphenyl)ethyl]-1,3-propanediol]		significantly stimulate PP2A activity	not significantly greater than rPP2A alone	increases rPP2A activity more at lower concentrations than at higher concentrations	potent agonists of S1P receptors with the exception of S1P2		PP2A activity, cellular [3]: stimulates PP2A activity; BDNF expression at the message level ([4]; neurons (FIG. 6B)): increased BDNF expression at the message level; BDNF at the protein level ([4]; neurons treated with FTY720, blot (FIG. 6A)): increased BDNF at the protein level; anxiety levels [5]: reduces anxiety levels; mouse grip strength [7]: improves mouse grip strength; PP2A activity, cell free [8]: stimulates PP2A activity; Paraquat toxicity ([9]; C57/B16 mice, FTY720 given before paraquat (PQ)): blocks Paraquat Toxicity; paraquat-stimulated increase in Syn in dopamine neurons ([9]; PQ given after FTY720, immunohistochemistry, TH-labelled neurons): blocks the increase in Syn; neuroinflammation as measured by microglial Ibal staining ([9]; adjacent tissue section): reduces neuroinflammation
CCCCCCCCc1ccc(CCC(CO)(CO)NC(C)=O)cc1 [FTY720-C2, N-(1-hydroxy-2-(hydroxymethyl)-4-(4-octylphenyl)butan-2-yl)ethanamide]		significantly stimulate PP2A activity		biggest effect		stimulatory effects	effect on PP2A in mouse adrenal gland, oral delivery ([10]; gavage, single dose (FIG. 9B)): stimulatory effects
CCCCCCCCc1ccc(CCC(CO)(CO)NC(=O)CC[P+](c2ccccc2)(c2ccccc2)c2ccccc2)cc1 [FTY720-Mitoxy, (3-(1-hydroxy-2-(hydroxymethyl)-4-(4-octylphenyl)butan-2-ylamino)-3-oxopropyl) triphenyl phosphonium bromide]		significantly stimulate PP2A activity	significant inhibitory effect	moderate effect		stimulatory effects	
CCCCCCCCc1ccc(CCC(N)(CO)COP(=O)(O)O)cc1 (stereo not shown) [FTY720-P, 2-amino-2-[2-(4-octylphenyl)ethyl]propane-1,3-diol phosphate]					potent agonists of S1P receptors with the exception of S1P2		
